According to ChEMBL document CHEMBL1149623, “Identification of antibacterial and antiviral activities of novel fused 1,2,4-triazine esters” (2007):

Legend:
[1] = Cytotoxicity against monkey GMK cells at 5 ug/mL after 120 hrs by MTT assay; format: functional, Chlorocebus aethiops
[2] = Cytotoxicity against monkey GMK cells at 5 ug/mL after 72 hrs by MTT assay; format: functional, Chlorocebus aethiops
HEK293 [3] = experiment: Cytotoxicity against human HEK293 cells at 10 ug/mL after 96 hrs by MTT assay; format: functional
HEK293 [4] = experiment: Cytotoxicity against human HEK293 cells at 2.5 ug/mL after 24 hrs by MTT assay; format: functional
HEK293 [5] = experiment: Cytotoxicity against human HEK293 cells at 200 ug/mL after 96 hrs by MTT assay; format: functional
[6] = Cytotoxicity against monkey GMK cells at 2.5 ug/mL after 120 hrs by MTT assay; format: functional, Chlorocebus aethiops
Human adenovirus 5 = experiment: Antiviral activity against Human adenovirus 5 in HEK293 cells assessed as virus titre at 50 ug/mL after 1 hr; format: functional
Echovirus E9 [7] = experiment: Antiviral activity against Human echovirus 9 in GMK cells assessed as virus titre at 100 ug/mL after 1 hr; format: functional
[8] = Cytotoxicity against monkey GMK cells at 25 ug/mL after 48 hrs by MTT assay; format: functional, Chlorocebus aethiops
HEK293 [9] = experiment: Cytotoxicity against human HEK293 cells at 25 ug/mL after 48 hrs by MTT assay; format: functional
HEK293 [10] = experiment: Cytotoxicity against human HEK293 cells at 100 ug/mL after 48 hrs by MTT assay; format: functional
[11] = Cytotoxicity against monkey GMK cells at 50 ug/mL after 24 hrs by MTT assay; format: functional, Chlorocebus aethiops
[12] = Cytotoxicity against monkey GMK cells at 25 ug/mL after 96 hrs by MTT assay; format: functional, Chlorocebus aethiops
[13] = Cytotoxicity against monkey GMK cells at 5 ug/mL after 24 hrs by MTT assay; format: functional, Chlorocebus aethiops
HEK293 [14] = experiment: Cytotoxicity against human HEK293 cells at 100 ug/mL after 24 hrs by MTT assay; format: functional
HEK293 [15] = experiment: Cytotoxicity against human HEK293 cells at 2.5 ug/mL after 120 hrs by MTT assay; format: functional
HEK293 [16] = experiment: Cytotoxicity against human HEK293 cells at 10 ug/mL after 48 hrs by MTT assay; format: functional
HEK293 [17] = experiment: Cytotoxicity against human HEK293 cells at 50 ug/mL after 96 hrs by MTT assay; format: functional
HEK293 [18] = experiment: Cytotoxicity against human HEK293 cells at 200 ug/mL after 120 hrs by MTT assay; format: functional
Echovirus E9 [19] = experiment: Antiviral activity against Human echovirus 9 in GMK cells assessed as virus titre at 200 ug/mL after 1 hr; format: functional
[20] = Cytotoxicity against monkey GMK cells at 10 ug/mL after 48 hrs by MTT assay; format: functional, Chlorocebus aethiops
[21] = Cytotoxicity against monkey GMK cells at 200 ug/mL after 48 hrs by MTT assay; format: functional, Chlorocebus aethiops
HEK293 [22] = experiment: Cytotoxicity against human HEK293 cells at 2.5 ug/mL after 48 hrs by MTT assay; format: functional
[23] = Cytotoxicity against monkey GMK cells at 2.5 ug/mL after 48 hrs by MTT assay; format: functional, Chlorocebus aethiops
[24] = Cytotoxicity against monkey GMK cells at 2.5 ug/mL after 24 hrs by MTT assay; format: functional, Chlorocebus aethiops
HEK293 [25] = experiment: Cytotoxicity against human HEK293 cells at 50 ug/mL after 72 hrs by MTT assay; format: functional
HEK293 [26] = experiment: Cytotoxicity against human HEK293 cells at 100 ug/mL after 72 hrs by MTT assay; format: functional
[27] = Cytotoxicity against monkey GMK cells at 10 ug/mL after 72 hrs by MTT assay; format: functional, Chlorocebus aethiops
[28] = Cytotoxicity against monkey GMK cells at 25 ug/mL after 24 hrs by MTT assay; format: functional, Chlorocebus aethiops
[29] = Cytotoxicity against monkey GMK cells at 10 ug/mL after 120 hrs by MTT assay; format: functional, Chlorocebus aethiops
HEK293 [30] = experiment: Cytotoxicity against human HEK293 cells at 10 ug/mL after 24 hrs by MTT assay; format: functional
HEK293 [31] = experiment: Cytotoxicity against human HEK293 cells at 5 ug/mL after 24 hrs by MTT assay; format: functional
HEK293 [32] = experiment: Cytotoxicity against human HEK293 cells at 200 ug/mL after 72 hrs by MTT assay; format: functional
[33] = Cytotoxicity against monkey GMK cells at 2.5 ug/mL after 96 hrs by MTT assay; format: functional, Chlorocebus aethiops
[34] = Cytotoxicity against monkey GMK cells at 10 ug/mL after 96 hrs by MTT assay; format: functional, Chlorocebus aethiops
Echovirus E9 [35] = experiment: Antiviral activity against Human echovirus 9 in GMK cells assessed as virus titre at 50 ug/mL after 1 hr; format: functional
[36] = Cytotoxicity against monkey GMK cells at 50 ug/mL after 120 hrs by MTT assay; format: functional, Chlorocebus aethiops
[37] = Cytotoxicity against monkey GMK cells at 100 ug/mL after 96 hrs by MTT assay; format: functional, Chlorocebus aethiops
HEK293 [38] = experiment: Cytotoxicity against human HEK293 cells at 200 ug/mL after 48 hrs by MTT assay; format: functional
HEK293 [39] = experiment: Cytotoxicity against human HEK293 cells at 50 ug/mL after 48 hrs by MTT assay; format: functional
HEK293 [40] = experiment: Cytotoxicity against human HEK293 cells at 100 ug/mL after 120 hrs by MTT assay; format: functional
HEK293 [41] = experiment: Cytotoxicity against human HEK293 cells at 50 ug/mL after 120 hrs by MTT assay; format: functional
HEK293 [42] = experiment: Cytotoxicity against human HEK293 cells at 200 ug/mL after 24 hrs by MTT assay; format: functional
[43] = Cytotoxicity against monkey GMK cells at 100 ug/mL after 72 hrs by MTT assay; format: functional, Chlorocebus aethiops
[44] = Cytotoxicity against monkey GMK cells at 200 ug/mL after 72 hrs by MTT assay; format: functional, Chlorocebus aethiops
HEK293 [45] = experiment: Cytotoxicity against human HEK293 cells at 25 ug/mL after 96 hrs by MTT assay; format: functional
HEK293 [46] = experiment: Cytotoxicity against human HEK293 cells at 50 ug/mL after 24 hrs by MTT assay; format: functional
[47] = Cytotoxicity against monkey GMK cells at 100 ug/mL after 120 hrs by MTT assay; format: functional, Chlorocebus aethiops
HEK293 [48] = experiment: Cytotoxicity against human HEK293 cells at 25 ug/mL after 24 hrs by MTT assay; format: functional
HEK293 [49] = experiment: Cytotoxicity against human HEK293 cells at 25 ug/mL after 120 hrs by MTT assay; format: functional
HEK293 [50] = experiment: Cytotoxicity against human HEK293 cells at 2.5 ug/mL after 72 hrs by MTT assay; format: functional
[51] = Cytotoxicity against monkey GMK cells at 5 ug/mL after 96 hrs by MTT assay; format: functional, Chlorocebus aethiops
[52] = Cytotoxicity against monkey GMK cells at 25 ug/mL after 120 hrs by MTT assay; format: functional, Chlorocebus aethiops
HEK293 [53] = experiment: Cytotoxicity against human HEK293 cells at 5 ug/mL after 96 hrs by MTT assay; format: functional
[54] = Cytotoxicity against monkey GMK cells at 5 ug/mL after 48 hrs by MTT assay; format: functional, Chlorocebus aethiops
HEK293 [55] = experiment: Cytotoxicity against human HEK293 cells at 5 ug/mL after 120 hrs by MTT assay; format: functional
[56] = Cytotoxicity against monkey GMK cells at 50 ug/mL after 96 hrs by MTT assay; format: functional, Chlorocebus aethiops

CCOC(=O)CC1NN=C2N(CCN2c2ccc(Cl)cc2)C1=O (configuration not stated)
Activity [1]: 100% | Activity [2]: 100% | Activity (HEK293 [3]): 100% | Activity (HEK293 [4]): 100% | Activity (HEK293 [5]): 25% | Activity [6]: 100% | TCID50 (Human adenovirus 5): 3.5 mL⁻¹ | TCID50 (Echovirus E9 [7]): 3.67 mL⁻¹ | Activity [8]: 100% | Activity (HEK293 [9]): 100% | Activity (HEK293 [10]): 90% | Activity [11]: 100% | Activity [12]: 100% | Activity [13]: 100% | Activity (HEK293 [14]): 95% | Activity (HEK293 [15]): 100% | Activity (HEK293 [16]): 100% | Activity (HEK293 [17]): 100% | Activity (HEK293 [18]): 20% | TCID50 (Echovirus E9 [19]): 3.5 mL⁻¹ | Activity [20]: 100% | Activity [21]: 100% | Activity (HEK293 [22]): 100% | Activity [23]: 100% | Activity [24]: 100% | Activity (HEK293 [25]): 100% | Activity (HEK293 [26]): 70% | Activity [27]: 100% | Activity [28]: 100% | Activity [29]: 100% | Activity (HEK293 [30]): 100% | Activity (HEK293 [31]): 100% | Activity (HEK293 [32]): 25% | Activity [33]: 100% | Activity [34]: 100% | TCID50 (Echovirus E9 [35]): 4.23 mL⁻¹ | Activity [36]: 100% | Activity [37]: 100% | Activity (HEK293 [38]): 30% | Activity (HEK293 [39]): 100% | Activity (HEK293 [40]): 50% | Activity (HEK293 [41]): 100% | Activity (HEK293 [42]): 50% | Activity [43]: 100% | Activity [44]: 100% | Activity (HEK293 [45]): 100% | Activity (HEK293 [46]): 100% | Activity [47]: 100% | Activity (HEK293 [48]): 100% | Activity (HEK293 [49]): 100% | Activity (HEK293 [50]): 100% | Activity [51]: 100% | Activity [52]: 100% | Activity (HEK293 [53]): 100% | Activity [54]: 100% | Activity (HEK293 [55]): 100% | Activity [56]: 100%
